# Earlier results as cited in patent US20240216406A1, “METHODS AND COMPOSITIONS FOR SUPPORTING HUMAN HEALTH DURING SPACE TRAVEL” (Intrinsic Medicine, Inc., priority 2021, published 2024).
# Like-named read-outs stand apart in the source and are kept apart here.
# Legend:
# local gut inflammation = settings: models of necrotizing enterocolitis and other inflammatory bowel diseases
# E. Coli = settings: in the presence of the HMO
# p65 = settings: murine rheumatoid arthritis model
# [1] = tested on: murine and human derived macrophages; settings: in vitro
# [2] = tested on: PDL1, COX2, CCL2 (MCP1), CCL5
# [3] = tested on: mouse models of rheumatoid arthritis; settings: administered orally; mouse rheumatoid arthritis models with LPS challenge
molecule,measurement,setting,value
"CC1O[C@@H](OC2[C@H](O[C@@H]3C(CO)OC(O)C(O)C3O)OC(CO)[C@H](O)[C@@H]2O)C(O)[C@@H](O)[C@@H]1O (some centres unmarked) [2′FL, 2′-fucosyllactose]",local gut inflammation,local gut inflammation,reduction of local gut inflammation
same,gut epithelial barrier function,gut epithelial barrier,positive effects on gut epithelial barrier function
same,TNFα and IL-8,TNFα and IL-8,reduction in TNFα and IL-8
same,E. Coli adhesion to Caco-2 cells,E. Coli,reduction of E. Coli adhesion
"CC(=O)N[C@H]1C([C@H](O)[C@H](O)CO)O[C@@](O[C@@H]2C(O)[C@H](O[C@@H]3C(CO)O[C@@H](O)C(O)[C@H]3O)OC(CO)[C@@H]2O)(C(=O)O)C[C@H]1O (some centres unmarked) [3′SL, 3′-sialyllactose]",phosphorylation of p65 (NF-kB signaling pathway),p65,inhibited phosphorylation of p65
same,"IL-1β, IL-2, IL-4, IL-6, IL-12, IFN γ or TNF-α",[1],reductions
same,"IL-1β, IL-2, IL-4, IL-6, IL-12, IFN γ or TNF-α",[1]; listed as 3′-SL,more significant reductions
same,"PDL1, COX2 and select chemokines such as CCL2 (MCP1) and CCL5",[2],reduce other key target proteins
"CC(=O)N[C@H]1C([C@H](O)[C@H](O)CO)O[C@@](OCC2O[C@@H](O[C@@H]3C(CO)O[C@@H](O)C(O)[C@H]3O)C(O)[C@@H](O)[C@H]2O)(C(=O)O)C[C@H]1O (some centres unmarked) [6′SL, 6′-sialyllactose]","IL-1β, IL-2, IL-4, IL-6, IL-12, IFN γ or TNF-α",[1],reductions
same,E. Coli adhesion to Caco-2 cells,E. Coli,reduction of E. Coli adhesion
sialyllactose,clinical assessments of disease,[3],benefit in clinical assessments of disease
